{"source": "patent US12454529B2", "about": "“Piperazine cyclic ureas” (SIRONAX LTD., priority 2020, dated 2025)"}
{"test_system": "HT-29 cells", "experiment": "HT-29 cell necrosis/necroptosis inhibition (TNF-α + SMAC mimetic + zVAD-FMK; CellTiter-Glo cell viability)", "format": "cell-based", "settings": "Homo sapiens; HT-29 cells, TNF-α 10 ng/ml + SMAC mimetic 6 μM + zVAD-FMK 10 μM, 20 hours; geometric mean, 10 points in duplicate; read-out: EC50 (Cell activity; Necrosis/Necroptosis Inhibitory Activity, Compounds 1-142)", "how_it_was_run": "(§1)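 Necroptosis was driven by TNF-α 10 ng/ml plus SMAC mimetic 6 μM and zVAD-FMK 10 μM in serum-free medium, with compounds as a 10-point threefold titration. After 20 h at 37 °C, ATP-based luminescence was read; EC50 values are geometric means of duplicate curves.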", "units": {"EC50": "nM"}}
{"molecule": "N#Cc1cc(F)cc([C@@H]2CC=NN2C(=O)N2CCN(c3nccc(-c4cc[nH]n4)n3)CC2)c1", "note": "[Compound 34, (5)-3-(1-(4-(4-(1H-pyrazol-3-yl)pyrimidin-2-yl)piperazine-1-carbonyl)-4,5-dihydro-1H-pyrazol-5-yl)-5-fluorobenzonitrile]", "EC50": "0.1 to 100"}
{"molecule": "Cc1cnn(C)c1-c1nc(N2CCN(C(=O)N3N=CC[C@H]3c3cc(F)cc(F)c3)CC2)ccc1F", "note": "[Compound 113, (S)-(5-(3,5-difluorophenyl)-4,5-dihydro-1H-pyrazol-1-yl)(4-(6-(1,4-dimethyl-1H-pyrazol-5-yl)-5-fluoropyridin-2-yl)piperazin-1-yl)methanone]", "EC50": "0.1 to 100"}
{"molecule": "Cc1nn(CC(N)=O)cc1-c1nc(N2CCN(C(=O)N3N=CC[C@H]3c3cc(F)cc(F)c3)CC2)ncc1F", "note": "[Compound 18, (S)-2-(4-(2-(4-(5-(3,5-difluorophenyl)-4,5-dihydro-1H-pyrazole-1-carbonyl)piperazin-1-yl)-5-fluoropyrimidin-4-yl)-3-methyl-1H-pyrazol-1-yl)acetamide]", "EC50": "0.1 to 100"}
{"molecule": "Cn1cccc(-c2nc(N3CCN(C(=O)N4N=CC[C@H]4c4cc(F)cc(F)c4)CC3)ncc2F)c1=O", "note": "[Compound 88, (S)-3-(2-(4-(5-(3,5-difluorophenyl)-4,5-dihydro-1H-pyrazole-1-carbonyl)piperazin-1-yl)-5-fluoropyrimidin-4-yl)-1-methylpyridin-2(1H)-one]", "EC50": "0.1 to 100"}
{"molecule": "NC(=O)Cn1ccc(-c2nc(N3CCN(C(=O)N4N=CC[C@H]4c4ccccc4)CC3)ncc2F)n1", "note": "[Compound 77]", "EC50": "0.1 to 100"}
{"molecule": "N#Cc1cc(F)cc([C@@H]2CC=NN2C(=O)N2CCN(c3ncc(F)c(-n4cc(C(N)=O)cn4)n3)CC2)c1", "note": "[Compound 107, (S)-1-(2-(4-(5-(3-cyano-5-fluorophenyl)-4,5-dihydro-1H-pyrazole-1-carbonyl)piperazin-1-yl)-5-fluoropyrimidin-4-yl)-1H-pyrazole-4-carboxamide]", "EC50": "0.1 to 100"}
{"molecule": "Cn1ncc(Cl)c1-c1nc(N2CCN(C(=O)N3N=CC[C@H]3c3cc(F)cc(C#N)c3)CC2)ncc1F", "note": "[Compound 15, (5)-3-(1-(4-(4-(4-chloro-1-methyl-1H-pyrazol-5-yl)-5-fluoropyrimidin-2-yl)piperazine-1-carbonyl)-4,5-dihydro-1H-pyrazol-5-yl)-5-fluorobenzonitrile]", "EC50": "0.1 to 100"}
{"test_system": "HT-29 cells", "experiment": "HT-29 cell necrosis/necroptosis inhibition (TNF-α + SMAC mimetic + zVAD-FMK; CellTiter-Glo cell viability)", "format": "cell-based", "settings": "Homo sapiens; HT-29 cells, TNF-α 10 ng/ml + SMAC mimetic 6 μM + zVAD-FMK 10 μM, 20 hours; geometric mean, 10 points in duplicate; read-out: EC50 (Cell activity; Necrosis/Necroptosis Inhibitory Activity, Compounds 143-323)", "how_it_was_run": "as §1", "units": {"EC50": "nM"}}
{"molecule": "O=C(N1CCN(c2ncc(F)c(-n3cnc(C(F)(F)F)n3)n2)CC1)N1N=CC[C@H]1c1cncc(F)c1", "note": "[Compound 314, (S)-(4-(5-fluoro-4-(3-(trifluoromethyl)-1H-1,2,4-triazol-1-yl)pyrimidin-2-yl)piperazin-1-yl)(5-(5-fluoropyridin-3-yl)-4,5-dihydro-1H-pyrazol-1-yl)methanone]", "EC50": "0.1 to 100"}
{"molecule": "Cc1nc(C)n(-c2nc(N3CCN(C(=O)N4N=CCC4c4ncccc4Cl)CC3)ncc2F)n1", "note": "(stereo not drawn) [Compound 189, (5-(3-chloropyridin-2-yl)-4,5-dihydro-1H-pyrazol-1-yl)(4-(4-(3,5-dimethyl-1H-1,2,4-triazol-1-yl)-5-fluoropyrimidin-2-yl)piperazin-1-yl)methanone]", "EC50": "0.1 to 100"}
{"molecule": "Cc1nn(-c2nc(N3CCN(C(=O)N4N=CC[C@H]4c4cc(F)cc(C#N)c4)CC3)ncc2F)c(C)c1S(C)(=O)=O", "note": "[Compound 204, (S)-3-(1-(4-(4-(3,5-dimethyl-4-(methylsulfonyl)-1H-pyrazol-1-yl)-5-fluoropyrimidinyl)piperazine-1-carbonyl)-4,5-dihydro-1H-pyrazol-5-yl)-5-fluorobenzonitrile]", "EC50": "0.1 to 100"}
{"molecule": "CCn1ncnc1-c1nc(N2CCN(C(=O)N3N=CC[C@H]3c3cc(F)cc(C#N)c3)CC2)ncc1F", "note": "[Compound 167, (S)-3-(1-(4-(4-(1-ethyl-1H-1,2,4-triazol-5-yl)-5-fluoropyrimidin-2-yl)piperazine-1-carbonyl)-4,5-dihydro-1H-pyrazol-5-yl)-5-fluorobenzonitrile]", "EC50": "0.1 to 100"}
{"molecule": "Cc1cnc([C@@H]2CC=NN2C(=O)N2CCN(c3ncc(F)c(-c4ncnn4C)n3)CC2)s1", "note": "[Compound 318, (S)-(4-(5-fluoro-4-(1-methyl-1H-1,2,4-triazol-5-yl)pyrimidin-2-yl)piperazin-1-yl)(5-(5-methylthiazol-2-yl)-4,5-dihydro-1H-pyrazol-1-yl)methanone]", "EC50": "0.1 to 100"}
{"molecule": "Cc1nc(C)n(-c2nc(N3CCN(C(=O)N4N=CCC4c4cscn4)CC3)ncc2F)n1", "note": "(stereo not drawn) [Compound 212, (4-(4-(3,5-dimethyl-1H-1,2,4-triazol-1-yl)-5-fluoropyrimidin-2-yl)piperazin-1-yl)(5-(thiazol-4-yl)-4,5-dihydro-1H-pyrazol-1-yl)methanone]", "EC50": "100 to 1000"}
{"molecule": "O=C(N1CCN(c2ncc(F)c(-n3cnc(C(F)(F)F)n3)n2)CC1)N1N=CC[C@H]1c1cc(F)cc(F)c1", "note": "[Compound 305, (S)-(5-(3,5-difluorophenyl)-4,5-dihydro-1H-pyrazol-1-yl)(4-(5-fluoro-4-(3-(trifluoromethyl)-1H-1,2,4-triazol-1-yl)pyrimidin-2-yl)piperazin-1-yl)methanone]", "EC50": "0.1 to 100"}
{"molecule": "Cc1nc(C)n(-c2nc(N3CCN(C(=O)N4N=CC[C@H]4c4cc(F)cc(F)c4F)CC3)ncc2F)n1", "note": "[Compound 264, (S)-(4-(4-(3,5-dimethyl-1H-1,2,4-triazol-1-yl)-5-fluoropyrimidin-2-yl)piperazin-1-yl)(5-(2,3,5-trifluorophenyl)-4,5-dihydro-1H-pyrazol-1-yl)methanone]", "EC50": "0.1 to 100"}
{"molecule": "CCS(=O)(=O)c1c(C)nn(-c2nc(N3CCN(C(=O)N4N=CC[C@H]4c4cc(F)cc(C#N)c4)CC3)ncc2F)c1C", "note": "[Compound 205, (S)-3-(1-(4-(4-(4-(ethylsulfonyl)-3,5-dimethyl-1H-pyrazol-1-yl)-5-fluoropyrimidin-2-yl)piperazine-1-carbonyl)-4,5-dihydro-1H-pyrazol-5-yl)-5-fluorobenzonitrile]", "EC50": "0.1 to 100"}
{"molecule": "Cc1cnc(C2CC=NN2C(=O)N2CCN(c3ncc(F)c(-c4nnc(C)s4)n3)CC2)s1", "note": "(stereo not drawn) [Compound 316]", "EC50": "0.1 to 100"}
{"molecule": "Cn1nc(CO)nc1-c1nc(N2CCN(C(=O)N3N=CCC3c3cc(F)cc(F)c3)CC2)ncc1F", "note": "(stereo not drawn) [Compound 227, (5-(3,5-difluorophenyl)-4,5-dihydro-1H-pyrazol-1-yl)(4-(5-fluoro-4-(3-(hydroxymethyl)-1-methyl-1H-1,2,4-triazol-5-yl)pyrimidin-2-yl)piperazin-1-yl)methanone]", "EC50": "0.1 to 100"}
{"molecule": "Cc1nnc(-c2nc(N3CCN(C(=O)N4N=CC[C@H]4c4cc(F)cc(F)c4)CC3)ncc2F)o1", "note": "[Compound 187, (S)-(5-(3,5-difluorophenyl)-4,5-dihydro-1H-pyrazol-1-yl)(4-(5-fluoro-4-(5-methyl-1,3,4-oxadiazol-2-yl)pyrimidin-2-yl)piperazin-1-yl)methanone]", "EC50": "0.1 to 100"}
{"molecule": "Cc1nnc(-c2nc(N3CCN(C(=O)N4N=CC[C@H]4c4cc(F)cc(C#N)c4)CC3)ncc2F)o1", "note": "[Compound 188, (S)-3-fluoro-5-(1-(4-(5-fluoro-4-(5-methyl-1,3,4-oxadiazol-2-yl)pyrimidin-2-yl)piperazine-1-carbonyl)-4,5-dihydro-1H-pyrazol-5-yl)benzonitrile]", "EC50": "0.1 to 100"}
{"molecule": "Cc1nc(C)n(-c2nc(N3CCN(C(=O)N4N=CCC4c4cc(Br)cc(F)c4F)CC3)ncc2F)n1", "note": "(stereo not drawn) [Compound 237, (5-(5-bromo-2,3-difluorophenyl)-4,5-dihydro-1H-pyrazol-1-yl)(4-(4-(3,5-dimethyl-1H-1,2,4-triazol-1-yl)-5-fluoropyrimidin-2-yl)piperazin-1-yl)methanone]", "EC50": "0.1 to 100"}
